Where two headings read alike, the source gives them in different places.
Assays:
Format in all cases: in vivo
mouse [1] = assay: Acute toxicity in the mouse, orally; conditions: for Autopsical examination (gastroenteric hyperemia, ulcers): oral
Text: (§1) Firstly, the acute and subacute toxicity in the mouse orally has been tested.
(§2) Table 1- Acute toxicity, in the mouse, of 1-(p-chlorobenzoyl)5-methoxy-2-methylindole-3-acetic acid (Product A) and of 1-(p-chlorobenzoyl) -5-methoxy-2-methylindole-3-acet-3-oxo-1-isobenzofuranyl ester derivative (Product B)

[2] = Acute toxicity in the mouse, orally; conditions: in vivo, oral, read-out: Mortality at 10th day %
Text: as §1, §2

rat [3] = assay: Ulcerogen activity in the fasted rat (autopsic examination of stomach, jejunum, large intestine and liver); conditions: 5 mg/kg
mouse [4] = assay: Antalgic activity in the mouse: tail-compression test (Bianchi C. test); conditions: oral; for Time for which the algic stimulus is tolerated: two hours from administration, equal doses
Description: The time elapsing between the algic stimulus and the reaction of the mouse trying to get out of said stimulus was determined in seconds.
The measure was effected at the times 0, 1, 2, 3 hours from administation of the derivative object of the present invention (Product B) and from administration of the comparison compound (Product A).
1--two lots of control animals: 0.5 ml/animal of mucilage of 5% arabic gum;
2--one lot treated with Product A--4 mg/kg;
3--one lot treated with Product A--7 mg/kg;
4--one lot treated with Product B--4 mg/kg;
5--one lot treated with Product B--7 mg/kg.

[5] = tested on: paw-oedema, induced by means of sub-plantar injection of carrageenin; assay: Anti-phlogistic activity: carrageenin-induced paw-oedema in the rat; conditions: oral
Description: In order to show the therapeutical activity of the derivative, which is an object of this invention, a research was carried out firstly on the anti-phlogistic activity as compared with the one of Product A.
The research was carried out in the rat by using the test of paw-oedema, induced by means of sub-plantar injection of carrageenin in a 1% solution. 0.1 ml of this solution was injected to each animal.
One hour before inoculation of the oedemigenous agent, the two test drugs were administered orally (gastric probe) to the different groups, according to the experimental scheme, and contemporaneously were measured, with a base value, the volume of the right untreated paw.
The treatment was effected on lots of five male animals of average weight of 240-270 g., according to the following experimental scheme:
1--three lots of control animals: 10 ml/kg mucilage of arabic gum;
2--one lot of animals treated with Product A--5 mg/kg;
3--one lot of animals treated with Product A--5.3 mg/kg;
4--one lot of animals treated with Product A--7 mg/kg;
5--one lot of animals treated with Product B--5 mg/kg;
6--one lot of animals treated with Product B--5.3 mg/kg;
7--one lot of animals treated with Product B--7 mg/kg.

rat [6] = assay: Ulcerogen activity in the fasted rat (autopsic examination of stomach, jejunum, large intestine and liver); conditions: 5 mg/kg; remark: listed apart in the source
Description: In order to complete the picture of the possible ulcerogen activity, in the rat, of the product which is the object of this invention, a further research on the rat as against Product A, was performed.
Both the test molecules were suspended in 5% arabic gum and taken to solution.
The pharmacological treatment at the standard dose of 5 mg/kg was effected orally by means of a gastro-oesophageal probe.
The groups of animals were treated after 9, 24, 31, 50, 53, 56, 60 and 70 hours from beginning of the fasting. During the fasting period the animals received subcutaneously, 2 ml/die/animal of a 5% glucose solution in […]. The animals were sacrificed, by decapitation, at 48 and 72 hours from beginning of the fasting; there were drawn for autopsic examination, jejunum and large intestine, which were examined microscopically in order to detect the presence of any possible ulcerations.

[7] = oral, sacrificed at 72 hours from beginning of fasting (8 administrations)
[8] = oral, sacrificed at 48 hours from beginning of fasting (3 administrations)

Row | Structure (SMILES) | Toxic component compared with the free acid (mouse [1]; in vivo) | Autopsical examination (gastroenteric hyperemia, ulcers) (mouse [1]) | mortality at 240 h ([2]; dose 10 mg/kg) [%] | mortality at 240 h ([2]; dose 18 mg/kg) [%] | mortality at 240 h ([2]; dose 20 mg/kg) [%] | mortality at 240 h ([2]; dose 25 mg/kg) [%] | mortality at 240 h ([2]; dose 28 mg/kg) [%] | Stomach, autopsic examination (rat [3]; in vivo, po) | Antalgic activity compared with the comparison product (mouse [4]; mouse, 4 and 7 mg/kg) | Time for which the algic stimulus is tolerated (mouse [4]) [s] | Anti-phlogistic effect (onset and extent) compared with the comparison product [5] | Anti-phlogistic activity compared with Product A ([5]; doses being equal (5, 5.3, 7 mg/kg), within the first three hours) | Caecum, autopsic examination (rat [6]; in vivo, po) | Liver, macroscopic and microscopic examination (rat [6]; in vivo, po) | Jejunum, autopsic examination (rat [6]; [7]) | Stomach, autopsic examination (rat [3]; [8]) | Stomach, autopsic examination (rat [3]; [7]) | Large intestine (caecum), autopsic examination (rat [6]; [8]) | Small intestine (jejunum), autopsic examination (rat [6]; [8]) | Caecum, autopsic examination (rat [6]; [7])
1 | COc1ccc2c(c1)c(CC(=O)OC1OC(=O)c3ccccc31)c(C)n2C(=O)c1ccc(Cl)cc1 (stereo not shown) [Product B, 1-(p-chlorobenzoyl)-5-methoxy-2-methyl indole-3-acetic acid 3-oxo-1-isobenzofuranyl ester] | lesser than the one of the free acid | only a slight gastroenteric hyperemia, but no ulcer | 20 | 40 | 50 | 60 | 70 | No considerable alteration at stomach level | quite superior | 45 | remarkably more precocious, as well as more marked | signficantly more active, doses being equal, than the comparison product (Product A) within the first three hours | None at caecum level | nothing pathological resulted | Jejunum slightly hyperemic | – | – | – | – | –
2 | COc1ccc2c(c1)c(CC(=O)O)c(C)n2C(=O)c1ccc(Cl)cc1 [Product A, 1-(p-chlorobenzoyl)-5-methoxy-2-methylindole-3-acetic acid, reference compound] | – | very marked gastroenteric hyperemia with presence of numerous ulcers | 40 | 70 | 90 | 100 | 100 | – | – | ≤ 30 | – | – | – | – | Jejunum diffusely hyperemic | Stomach diffusely hyperemic | Stomach highly hyperemic with presence of evident macroulcers | highly hyperemic | slightly hyperemic, with presence of microulcers | Caecum with hemorrhagic microareas
